Experiments:
[1] = system: human knee cartilage explants; experiment: Aggrecan/sGAG biosynthesis rate (35S-sulfate incorporation) in human knee cartilage explants; assay type: cell-based
Method: Cartilage was harvested from the knee joint of a donor. Cartilage explants were equilibrated in culture media for 2 days after harvest. […] These were cut down to 1 mm thickness and allowed to equilibrate for a further 2 days before the experiment was set up. Subsets of the experiment were terminated at 3 days and 7 days from the start of the experiment. Media changes were performed every 2 to 3 days.
For the 3-day termination experiment, chondrocyte biosynthesis rate (primarily aggrecan synthesis) was measured between days 0 and 3 of the experiment using a 35S-sulfate radiolabel. For the 7-day termination experiment, this measurement was done between days 5 and 7. Statistics: 1-way ANOVA with post-hoc Tukey's HSD test.
Cartilage was harvested from the knee joint of a donor. Cartilage explants were equilibrated in culture media for 3 days after harvest. […] These were cut down to 1 mm thickness and allowed to equilibrate for a further 3 days before the experiment was set up. Subsets of the experiment were terminated at 3 days and 7 days from the start of the experiment. Media changes were performed every 2 to 3 days.
(§1) Cartilage explants that were equilibrated in culture medium post-harvest were transferred to ultra-low attachment cell culture plates (Corning) for dose response experiments. All experiments were carried out in low glucose, serum free medium (same composition as equilibration medium). Previous studies studying the effects of IGF-1 on cartilage explants have used doses ranging from 10 ng/ml to 300 ng/ml. Based on these, 300 ng/ml (equivalent to 39.2 nM) of free recombinant human IGF-1 (PeproTech, Rocky Hill, NJ) was used as the positive control.
(§2) Since each fusion protein had one IGF-1 domain, equivalent doses (39.2 nM) of these were tested. In addition to this, 500 nM, 1 μM and 2 μM doses of fusion proteins were also tested. In all cases, only a single dose of the fusion proteins was added at the start of the experiment, and media changes were carried out without fusion proteins once every 2 to 3 days thereafter. In contrast, continuous doses of free IGF-1 were used for the positive control. An untreated control group was also included in the experiments. Experiments were terminated at 3-day, 7-day and 15-day time points. Outcome measures included the biosynthesis rate of sulfated glycosaminoglycans (sGAG), explant metabolic rate, sGAG loss to the culture medium and the explant sGAG content at the end of the experiment.
(§3) The metabolic rate of cartilage explants was measured using the Alamar Blue assay (ThermoFisher). Cartilage explants were incubated for 3 hours in a 1× solution of Alamar Blue dissolved in culture medium. At the end of the incubation period, the absorbance of the medium at 570 nm and 600 nm was measured using a microplate reader (Synergy H1 Hybrid Multi-Mode Microplate Reader, BioTek). These readings were used to calculate the percentage reduction of Alamar Blue, which is directly proportional to the explant metabolic rate. These values were first normalized by individual explant weights. Following this, the weight-normalized readings for the treatment groups were normalized by the weight-normalized mean value for the untreated controls. To measure the chondrocyte biosynthesis rate of sulfated glycosaminoglycans (sGAGs), cartilage explants were cultured in the presence of 10 μCi/mL 35S-sulfate radiolabel during the final two days of each experiment. Following this, the explants were washed with PBS with non-radioactive sulfate to wash out excess radiolabel, weighed and digested with proteinase K. A liquid scintillation counter (PerkinElmer) was used to measure the amount of radiolabel incorporated within the extracellular matrix of the tissues. Radiolabel incorporation data were normalized by the duration of exposure to radiolabel and by the wet weight of the explants (Li et al., Osteoarthritis and Cartilage 23(2):266-274 (2015)). […]

[2] = system: human ankle cartilage explants; experiment: Aggrecan/sGAG biosynthesis rate (35S-sulfate incorporation) in human ankle cartilage explants; assay type: cell-based; conditions: for biosynthesis rate of explants compared to the untreated control: single 39.2 nM dose (equivalent to 300 ng/ml free IGF-1), FIGS. 19A-19B; for sGAG biosynthesis rate: single 500 nM, 1 μM and 2 μM doses, Day 0 to Day 3, both ankle and knee cartilage; for elevated biosynthesis rate after single dose, up to Day 7 / elevated biosynthesis rate after single dose, up to Day 15: single dose not replenished during media changes, FIG. 12 (ankle and knee)
Method: Cartilage was harvested from both ankles of a donor (Collins Grade 0). Cartilage explants were equilibrated in culture media for 3 days after harvest. […] These were cut down to 1 mm thickness and allowed to equilibrate for a further 2.5 days before experiments were set up. A dose response experiment and an uptake experiment were set up in parallel.
Subsets of the experiment were terminated at 3 days and 7 days from the start of the experiment. Media changes were performed every 2 to 3 days. 3 doses of free +9 GFP were included as additional controls, which tests whether high doses of the drug delivery carrier has adverse effects on aggrecan biosynthesis rate.
For the 3-day termination experiment, chondrocyte biosynthesis rate (primarily aggrecan synthesis) was measured between days 0 and 3 of the experiment using a 35S-sulfate radiolabel. For the 7-day experiment, this measurement was done between days 5 and 7. Statistics: 1-way ANOVA with post-hoc Tukey's HSD test.
Cartilage was harvested from the ankle of a donor (Collins Grade 1). Cartilage explants were equilibrated in culture media for 2 days after harvest. […] These were cut down to 1 mm thickness and allowed to equilibrate for a further 2.5 days before experiments were set up. A 7-day dose response experiment was set up.
Chondrocyte biosynthesis rate (primarily aggrecan synthesis) was measured between days 5 and 7 of the experiment using a 35S-sulfate radiolabel. Statistics: 1-way ANOVA with post-hoc Tukey's HSD test.
as §1, §2
as §3, with “experiment.” for “experiment. Following this, the explants were washed with PBS with non-radioactive sulfate to wash out excess radiolabel, weighed and digested with proteinase K. A liquid scintillation counter (PerkinElmer) was used to measure the amount of radiolabel incorporated within the extracellular matrix of the tissues. Radiolabel incorporation data were normalized by the duration of exposure to radiolabel and by the wet weight of the explants (Li et al., Osteoarthritis and Cartilage 23(2):266-274 (2015)).”

[3] = Experiment 1, knee, donor, single 500 nM dose, 3-day time point (days 0-3)
[4] = Experiment 2, knee, donor, single 2 μM dose, 3-day time point
[5] = Experiment 2, knee, single 1 μM dose, 7-day time point
[6] = Experiment 2, knee, single 2 μM dose, 7-day time point

## (+9GFP)-(EAAAK)3-(IGF-1): fusion protein of +9 GFP and human IGF-1 with rigid (EAAAK)3 linker, SEQ ID NO: 8
[1]; [3]
  aggrecan biosynthesis rate compared to the untreated control: not statistically significantly different
[1]; Experiment 2, knee, donor, single 1 μM dose, 3-day time point
  aggrecan biosynthesis rate compared to the untreated control: statistically significantly higher
[1]; [4]
  aggrecan biosynthesis rate compared to the untreated control: statistically significantly higher
[1]; [5]
  aggrecan biosynthesis rate compared to the untreated control: statistically significantly higher
[1]; [6]
  aggrecan biosynthesis rate compared to the untreated control: statistically significantly higher
[2]; Experiment 3A, ankle, all three single doses (500 nM, 1 μM, 2 μM), 7-day time point
  aggrecan biosynthesis rate compared to the untreated control: statistically significantly higher
[2]
  biosynthesis rate of explants compared to the untreated control: did not increase
  sGAG biosynthesis rate: significant increase
  elevated biosynthesis rate after single dose, up to Day 7: sustained up to Day 7
  elevated biosynthesis rate after single dose, up to Day 15: could not maintain

## IGF-1: free recombinant human IGF-1 (PeproTech), pro-anabolic growth factor used as the positive control
[1]; Experiment 1, knee, donor, continuous 40 nM free IGF-1, 3-day time point
  aggrecan biosynthesis rate compared to the untreated control: significantly higher
[1]; Experiment 1, knee, continuous 40 nM free IGF-1, 7-day time point
  aggrecan biosynthesis rate compared to the untreated control: significantly higher
[1]; Experiment 2, knee, continuous 40 nM free IGF-1, 3-day time point
  aggrecan biosynthesis rate compared to the untreated control: statistically significantly higher
[1]; Experiment 2, knee, continuous 40 nM free IGF-1, 7-day time point
  aggrecan biosynthesis rate compared to the untreated control: statistically significantly higher
[2]; Experiment 3A, ankle, continuous 40 nM free IGF-1, 3-day time point
  aggrecan biosynthesis rate compared to the untreated control: statistically significantly higher
[2]; Experiment 3A, ankle, continuous 40 nM free IGF-1, 7-day time point
  aggrecan biosynthesis rate compared to the untreated control: statistically significantly higher
[2]; Experiment 4, ankle, continuous 40 nM free IGF-1, days 5-7
  aggrecan biosynthesis rate compared to the untreated control: statistically significantly higher
[2]; continuous 39.2 nM free IGF-1, FIG. 19A
  sulfate incorporation rate compared to the untreated control: significantly increased

## (+9GFP)-(GGGGS)4-(IGF-1): fusion protein of +9 GFP and human IGF-1 with flexible (GGGGS)4 linker, SEQ ID NO: 7
[1]; [3]
  aggrecan biosynthesis rate compared to the untreated control: significantly higher
[1]; Experiment 1, knee, donor, single 2 μM dose, 3-day time point
  aggrecan biosynthesis rate compared to the untreated control: not statistically significantly different
[1]; Experiment 1, knee, single 500 nM and 2 μM doses on Day 0
  mean aggrecan biosynthesis rate at Day 7 versus Day 3: the same as the rate on Day 3
[1]; Experiment 1, knee, single 500 nM dose, 7-day time point (days 5-7)
  aggrecan biosynthesis rate compared to the untreated control: not statistically significantly different
[1]; Experiment 1, knee, single 2 μM dose, 7-day time point
  aggrecan biosynthesis rate compared to the untreated control: not statistically significantly different
[1]; Experiment 2, knee, donor, single 500 nM dose, 3-day time point
  aggrecan biosynthesis rate compared to the untreated control: statistically significantly higher
[1]; [4]
  aggrecan biosynthesis rate compared to the untreated control: statistically significantly higher
[1]; [5]
  aggrecan biosynthesis rate compared to the untreated control: statistically significantly higher
[1]; [6]
  aggrecan biosynthesis rate compared to the untreated control: statistically significantly higher
[2]; Experiment 3A, ankle, donor, single 500 nM dose, 3-day time point
  aggrecan biosynthesis rate compared to the untreated control: statistically significantly higher
[2]; Experiment 3A, ankle, single 500 nM dose, 7-day time point
  aggrecan biosynthesis rate compared to the untreated control: statistically significantly higher
[2]; Experiment 3A, ankle, single 1 μM dose, 7-day time point
  aggrecan biosynthesis rate compared to the untreated control: statistically significantly higher
[2]; Experiment 3A, ankle, single 2 μM dose, 3-day time point
  aggrecan biosynthesis rate compared to the untreated control: statistically significantly higher
[2]; Experiment 4, ankle, donor, single 500 nM dose, days 5-7
  aggrecan biosynthesis rate compared to the untreated control: statistically significantly higher
[2]; Experiment 4, ankle, donor, single 1 μM dose, days 5-7
  aggrecan biosynthesis rate compared to the untreated control: statistically significantly higher
[2]
  biosynthesis rate of explants compared to the untreated control: did not increase
  sGAG biosynthesis rate: significant increase
  elevated biosynthesis rate after single dose, up to Day 7: sustained up to Day 7
  elevated biosynthesis rate after single dose, up to Day 15: could not maintain

— patent US12653899B2, “Multi-targeted, tunable, sustained delivery of payloads to charged avascular tissues” (Massachusetts Institute of Technology, priority 2019, dated 2026)
